Laboratory results reported in PubChem BioAssay (NCI).
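Step 1: Grow cells in 96-well plates. Step 2: Expose to compound for 48 hours at 5 concentrations. Step 3: Interpolate endpoints linearly; if unreached, use highest concentration. The concentration for full growth arrest is given as TGI.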

Assays:
Assay in all cases: NCI anticancer screen, dose series, 48 h
NCI-H460 lung = tested on: NCI-H460 lung
SK-OV-3 ovarian = tested on: SK-OV-3 ovarian
NCI/ADR-RES ovarian = tested on: NCI/ADR-RES ovarian
HCC-2998 colon = tested on: HCC-2998 colon
PC-3 prostate = tested on: PC-3 prostate
HT29 colon = tested on: HT29 colon
CAKI-1 renal = tested on: CAKI-1 renal
OVCAR-3 ovarian = tested on: OVCAR-3 ovarian
MDA-N = tested on: MDA-N
CCRF-CEM leukemia = tested on: CCRF-CEM leukemia
TK-10 renal = tested on: TK-10 renal
T-47D breast = tested on: T-47D breast
LOX IMVI melanoma = tested on: LOX IMVI melanoma
MALME-3M melanoma = tested on: MALME-3M melanoma
M14 melanoma = tested on: M14 melanoma
NCI-H23 lung = tested on: NCI-H23 lung
A549 NSCLC = tested on: A549 NSCLC
SW-620 colon = tested on: SW-620 colon
HS 578T breast = tested on: HS 578T breast
SK-MEL-2 melanoma = tested on: SK-MEL-2 melanoma
ACHN renal = tested on: ACHN renal
UO-31 renal = tested on: UO-31 renal
MCF7 breast = tested on: MCF7 breast
HOP-92 NSCLC = tested on: HOP-92 NSCLC
SK-MEL-28 melanoma = tested on: SK-MEL-28 melanoma
COLO 205 colon = tested on: COLO 205 colon
MOLT-4 leukemia = tested on: MOLT-4 leukemia
SK-MEL-5 melanoma = tested on: SK-MEL-5 melanoma
NCI-H522 lung = tested on: NCI-H522 lung
HL-60(TB) leukemia = tested on: HL-60(TB) leukemia
OVCAR-4 ovarian = tested on: OVCAR-4 ovarian
NCI-H226 lung = tested on: NCI-H226 lung
OVCAR-5 ovarian = tested on: OVCAR-5 ovarian
SF-539 CNS = tested on: SF-539 CNS
KM12 colon = tested on: KM12 colon
A498 renal = tested on: A498 renal
HOP-62 NSCLC = tested on: HOP-62 NSCLC
OVCAR-8 ovarian = tested on: OVCAR-8 ovarian
SN12C renal = tested on: SN12C renal
K-562 leukemia = tested on: K-562 leukemia
BT-549 breast = tested on: BT-549 breast
HCT-116 colon = tested on: HCT-116 colon
HCT-15 colon = tested on: HCT-15 colon
MDA-MB-231 breast = tested on: MDA-MB-231 breast
MDA-MB-435 = tested on: MDA-MB-435
RPMI-8226 leukemia = tested on: RPMI-8226 leukemia
SNB-75 CNS = tested on: SNB-75 CNS
RXF 393 renal = tested on: RXF 393 renal
UACC-62 melanoma = tested on: UACC-62 melanoma
U251 CNS = tested on: U251 CNS
EKVX NSCLC = tested on: EKVX NSCLC
786-0 renal = tested on: 786-0 renal
SNB-19 CNS = tested on: SNB-19 CNS
DU-145 prostate = tested on: DU-145 prostate
SF-295 CNS = tested on: SF-295 CNS
SR leukemia = tested on: SR leukemia
IGROV1 ovarian = tested on: IGROV1 ovarian
SF-268 CNS = tested on: SF-268 CNS
UACC-257 melanoma = tested on: UACC-257 melanoma

Q: Which results are given for `COP(=O)(OC)/C(=C/c1c[nH]c2ccccc12)C(=O)O`?
A: TGI (NCI-H460 lung): > 100 µM; TGI (SK-OV-3 ovarian): > 100 µM; TGI (NCI/ADR-RES ovarian): > 100 µM; TGI (HCC-2998 colon): > 100 µM; TGI (PC-3 prostate): > 100 µM; TGI (HT29 colon): > 100 µM; TGI (CAKI-1 renal): > 100 µM; TGI (OVCAR-3 ovarian): > 100 µM; TGI (MDA-N): > 100 µM; TGI (CCRF-CEM leukemia): > 100 µM; TGI (TK-10 renal): > 100 µM; TGI (T-47D breast): > 100 µM; TGI (LOX IMVI melanoma): > 100 µM; TGI (MALME-3M melanoma): > 100 µM; TGI (M14 melanoma): > 100 µM; TGI (NCI-H23 lung): > 100 µM; TGI (A549 NSCLC): > 100 µM; TGI (SW-620 colon): > 100 µM; TGI (HS 578T breast): > 100 µM; TGI (SK-MEL-2 melanoma): > 100 µM; TGI (ACHN renal): > 100 µM; TGI (UO-31 renal): > 100 µM; TGI (MCF7 breast): > 100 µM; TGI (HOP-92 NSCLC): > 100 µM; TGI (SK-MEL-28 melanoma): > 100 µM; TGI (COLO 205 colon): > 100 µM; TGI (MOLT-4 leukemia): > 100 µM; TGI (SK-MEL-5 melanoma): > 100 µM; TGI (NCI-H522 lung): > 100 µM; TGI (HL-60(TB) leukemia): > 100 µM; TGI (OVCAR-4 ovarian): > 100 µM; TGI (NCI-H226 lung): > 100 µM; TGI (OVCAR-5 ovarian): > 100 µM; TGI (SF-539 CNS): > 100 µM; TGI (KM12 colon): > 100 µM; TGI (A498 renal): > 100 µM; TGI (HOP-62 NSCLC): > 100 µM; TGI (OVCAR-8 ovarian): > 100 µM; TGI (SN12C renal): > 100 µM; TGI (K-562 leukemia): > 100 µM; TGI (BT-549 breast): > 100 µM; TGI (HCT-116 colon): > 100 µM; TGI (HCT-15 colon): > 100 µM; TGI (MDA-MB-231 breast): > 100 µM; TGI (MDA-MB-435): > 100 µM; TGI (RPMI-8226 leukemia): > 100 µM; TGI (SNB-75 CNS): > 100 µM; TGI (RXF 393 renal): > 100 µM; TGI (UACC-62 melanoma): > 100 µM; TGI (U251 CNS): > 100 µM; TGI (EKVX NSCLC): > 100 µM; TGI (786-0 renal): > 100 µM; TGI (SNB-19 CNS): > 100 µM; TGI (DU-145 prostate): > 100 µM; TGI (SF-295 CNS): > 100 µM; TGI (SR leukemia): > 100 µM; TGI (IGROV1 ovarian): > 100 µM

Q: What does the source list for `Cc1ccc([N+](=O)[O-])cc1S(=O)(=O)Nc1ccc(C(=O)/C=C/c2cccs2)cc1`?
A: TGI (NCI-H460 lung): > 100 µM; TGI (SK-OV-3 ovarian): > 100 µM; TGI (NCI/ADR-RES ovarian): 59.3 µM; TGI (HCC-2998 colon): 34.6 µM; TGI (PC-3 prostate): 43.8 µM; TGI (HT29 colon): 41.6 µM; TGI (CAKI-1 renal): 38.8 µM; TGI (OVCAR-3 ovarian): 39.2 µM; TGI (MDA-N): 73 µM; TGI (CCRF-CEM leukemia): > 100 µM; TGI (TK-10 renal): > 100 µM; TGI (T-47D breast): 91.7 µM; TGI (LOX IMVI melanoma): 45.2 µM; TGI (MALME-3M melanoma): > 100 µM; TGI (M14 melanoma): 45.3 µM; TGI (NCI-H23 lung): 46.1 µM; TGI (A549 NSCLC): > 100 µM; TGI (SW-620 colon): 50.1 µM; TGI (HS 578T breast): > 100 µM; TGI (SK-MEL-2 melanoma): 41.8 µM; TGI (ACHN renal): 87.6 µM; TGI (UO-31 renal): 40.4 µM; TGI (MCF7 breast): 39.2 µM; TGI (HOP-92 NSCLC): > 100 µM; TGI (SK-MEL-28 melanoma): 58.7 µM; TGI (COLO 205 colon): 95.9 µM; TGI (MOLT-4 leukemia): 64.1 µM; TGI (SK-MEL-5 melanoma): 33.1 µM; TGI (NCI-H522 lung): 50.8 µM; TGI (HL-60(TB) leukemia): 62.9 µM; TGI (OVCAR-4 ovarian): 54.3 µM; TGI (NCI-H226 lung): 71.5 µM; TGI (OVCAR-5 ovarian): > 100 µM; TGI (SF-539 CNS): > 100 µM; TGI (KM12 colon): 32.5 µM; TGI (A498 renal): 45.1 µM; TGI (HOP-62 NSCLC): 48 µM; TGI (OVCAR-8 ovarian): > 100 µM; TGI (SN12C renal): 74.8 µM; TGI (K-562 leukemia): > 100 µM; TGI (SF-268 CNS): > 100 µM; TGI (UACC-257 melanoma): 46.6 µM; TGI (BT-549 breast): 40.1 µM; TGI (HCT-116 colon): 35.8 µM; TGI (HCT-15 colon): 64.3 µM; TGI (MDA-MB-231 breast): 31.1 µM; TGI (MDA-MB-435): 32.7 µM; TGI (RPMI-8226 leukemia): > 100 µM; TGI (SNB-75 CNS): 36.9 µM; TGI (RXF 393 renal): 32.9 µM; TGI (UACC-62 melanoma): 32.1 µM; TGI (EKVX NSCLC): 51.7 µM; TGI (786-0 renal): 37.4 µM; TGI (SNB-19 CNS): 55.9 µM; TGI (DU-145 prostate): 54.2 µM; TGI (SF-295 CNS): > 100 µM; TGI (SR leukemia): 68.9 µM; TGI (IGROV1 ovarian): > 100 µM
